US10450297B2, “Sulfonyl amide derivatives for the treatment of abnormal cell growth” (Pfizer, Inc., priority 2007, dated 2019)

Biological target: FAK kinase (catalytic construct FAK(410-689)) (Homo sapiens (Human), UniProt Q05397)
Assay: FAKcd kinase ELISA (inhibition of poly-glu-tyr phosphorylation by FAK(410-689))
Type: biochemical
Details: 50 μM final ATP
Method: A. In-Vitro Activity of FAK:
The assay protocol has three parts:
3. […] 4. […] 5. […] 6. […] 7. […] 9. […] 10. […] 12. […] 13. […] 14. Aliquot the FAKcd protein and store frozen at −80° C. II. FAK Activation 1. […] At t120 (t=120 minutes), add 10 μl of 150 mM ATP. […] Add 180 μl aliquots of the desalted material to NiNTA spin column and incubate on spin column 4. […] FAKcd Kinase ELISA 1. Coat 96-well Nunc MaxiSorp plates with poly-glu-tyr (pGT) at […]: Prepare 10 μg/ml of pGT in PBS and aliquot 100 μl/well. Incubate the plates at 37° C. overnight, aspirate the supernatant, wash the plates 3 times with Wash Buffer, and flick to dry before storing at 4° C. 2. Prepare compound stock solutions of 2.5 mM in 100% DMSO. The stocks are subsequently diluted to 60× of the final concentration in 100% DMSO, and diluted 1:5 in Kinase Phosphorylation Buffer. 3. […] Add 80 μl to each well for a final ATP concentration of 50 μM. 4. […] 5. Dilute on ice, FAKcd protein to 1:1000 in Kinase Phosphorylation Buffer. Dispense 30 μl per well. 6. Note: Linearity and the appropriate dilution must be pre-determined for each batch of protein. The enzyme concentration selected should be such that quantitation of the assay signal will be approximately 0.8-1.0 at OD450, and in the linear range of the reaction rate. 7. Prepare both a No ATP control (noise) and a No Compound Control (Signal): 8. (Noise) One blank row of wells receives 10 μl of 1:5 diluted compounds in DMSO, 80 μl of Phosphorylation buffer (minus ATP), and 30 μl FAKcd solution. 9. […] 10. Incubate reaction at room temperature for 15 minutes with gentle shaking on a plate shaker. 11. Terminate the reaction by aspirating off the reaction mixture and washing 3 times with wash buffer. 12. Dilute phospho-tyrosine HRP-conjugated (pY20HRP) antibody to 0.250 μg/ml (1:1000 of Stock) in blocking buffer. Dispense 100 μl per well, and incubate with shaking for 30 minutes at 25°. 13. Aspirate the supernatant and wash the plate 3 times with wash buffer. 14. Add 100 μl per well of room temperature TMB solution to initiate color development. Color development is terminated after approximately 15-30 sec. by the addition of 100 μl of 0.09M H2SO4 per well. 15. The signal is quantitated by measurement of absorbance at 450 nm on the BioRad ricroplate reader or a microplate reader capable of reading at OD450. 16. Inhibition of tyrosine kinase activity would result in a reduced absorbance signal. […] The values are reported as IC50s, μM concentration. FAK Inducible cell-based ELISA: Final Protocol Materials: […]

Chain of FAK kinase (catalytic construct FAK(410-689)) (Q05397 410-689): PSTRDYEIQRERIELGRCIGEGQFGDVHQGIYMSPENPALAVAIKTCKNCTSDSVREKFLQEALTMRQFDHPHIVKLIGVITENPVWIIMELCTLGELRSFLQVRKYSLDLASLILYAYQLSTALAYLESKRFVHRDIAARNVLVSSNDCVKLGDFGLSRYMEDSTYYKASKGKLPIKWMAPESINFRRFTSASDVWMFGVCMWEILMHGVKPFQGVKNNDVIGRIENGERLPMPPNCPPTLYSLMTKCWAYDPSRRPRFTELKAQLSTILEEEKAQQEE

Row | IC50 [nM] | Structure (SMILES)
1 | 0.6 | CN(c1ncccc1CNc1nc(Nc2ccc(C(=O)N3CC[C@H](F)C3)cc2)ncc1C(F)(F)F)S(C)(=O)=O (stereo in doubt) [Compound 235, N-[3-({[2-({4-[(3-fluoropyrrolidin-1-yl)carbonyl]phenyl}amino)-5-(trifluoromethyl)pyrimidin-4-yl]amino}methyl)pyridin-2-yl]-N-methylmethane-sulfonamide]
2 | 0.616 | CC(N)c1ccc(Nc2ncc(C(F)(F)F)c(NCc3nccnc3N(C)S(C)(=O)=O)n2)cc1 (stereo in doubt) [Compound 351, N-[3-({[2-({4-[(1R)-1-aminoethyl]phenyl}amino)-5-(trifluoromethyl)pyrimidin-4-yl]amino}methyl)pyrazin-2-yl]-N-methylmethane-sulfonamide]
3 | < 0.595 | CC(N)c1ccc(Nc2ncc(C(F)(F)F)c(NCc3ccccc3N(C)S(C)(=O)=O)n2)cc1 (stereo in doubt) [Compound 362, N-[2-({[2-({4-[(1R)-1-aminoethyl]phenyl}amino)-5-(trifluoromethyl)pyrimidin-4-yl]amino}methyl)phenyl]-N-methylmethanesulfonamide]
4 | 4.09 | CN(c1ncccc1CNc1nc(Nc2ccc(S(N)(=O)=O)cc2)ncc1C(F)(F)F)S(C)(=O)=O [Compound 16, 4-({4-[({2-[methyl(methylsulfonyl)amino]pyridin-3-yl}methyl)amino]-5-(trifluoromethyl)pyrimidin-2-yl}amino)benzenesulfon-amide]
5 | 1.26 | Cc1ccc(CNc2nc(Nc3ccc(S(N)(=O)=O)cc3)ncc2C(F)(F)F)c(N(C)S(C)(=O)=O)n1 [Compound 17, 4-({4-[({6-methyl-2-[methyl(methylsulfonyl)amino]pyridin-3-yl}methyl)amino]-5-(trifluoromethyl)pyrimidin-2-yl}amino)benzene-sulfonamide]
6 | 13.2 | CS(=O)(=O)c1cccc(CNc2nc(Nc3ccc(S(N)(=O)=O)cc3)ncc2C(F)(F)F)c1 [Compound 18, 4-{[4-{[3-(methylsulfonyl)benzyl]amino}-5-(trifluoromethyl)pyrimidin-2-yl]amino}benzene-sulfonamide]
7 | 3.4 | CN(c1ncccc1CNc1nc(Nc2ccc(C(N)=O)cc2)ncc1C(F)(F)F)S(C)(=O)=O [Compound 19, 4-({4-[({2-[methyl(methylsulfonyl)amino]pyridin-3-yl}methyl)amino]-5-(trifluoromethyl)pyrimidin-2-yl}amino)benzamide]
8 | 0.6 | CN(c1ncccc1CNc1nc(Nc2ccc(C(N)=O)cc2)ncc1C(F)(F)F)S(C)(=O)=O [Compound 20, 4-({4-[({2-[methyl(methylsulfonyl)amino]pyridin-3-yl}methyl)amino]-5-(trifluoromethyl)pyrimidin-2-yl}amino)benzamide]
9 | 1 | Cc1ccc(CNc2nc(Nc3ccc(C(N)=O)cc3)ncc2C(F)(F)F)c(N(C)S(C)(=O)=O)n1 [Compound 21, 4-({4-[{{6-methyl-2-[methyl(methylsulfonyl)amino]pyridin-3-yl}methyl)amino]-5-(trifluoromethyl)pyrimidin-2-yl}amino)benzamide]
10 | 68.6 | CN(c1ncccc1CNc1nc(Nc2ccc(S(C)(=O)=O)nc2)ncc1C(F)(F)F)S(C)(=O)=O [Compound 23, N-methyl-N-[3-({[2-{[6-(methylsulfonyl)pyridin-3-yl]amino}-5-(trifluoromethyl)pyrimidin-4-yl]amino}methyl)pyridin-2-yl]methanesulfonamide]
11 | 337 | CS(=O)(=O)c1cccc(CNc2nc(Nc3ccc(S(C)(=O)=O)nc3)ncc2C(F)(F)F)c1 [Compound 24, N-4-[3-(methylsulfonyl)benzyl]-N-2-[6-(rnethylsulfonyl)pyridin-3-yl]-5-(trifluoromethyl)-pyrimidine-2,4-diamine]
12 | 12.9 | Cc1ccc(CNc2nc(Nc3ccc(S(C)(=O)=O)nc3)ncc2C(F)(F)F)c(N(C)S(C)(=O)=O)n1 [Compound 25, N-methyl-N-[6-methyl-3-({[2-{[6-(methylsulfonyl)pyridin-3-yl]amino}-5-(trifluoromethyl)pyrimidin-4-yl]amino}methyl)pyridin-2-yl]methanesulfonamide]
13 | 154 | CN(c1cccc(CNc2nc(Nc3ccc(S(C)(=O)=O)nc3)ncc2C(F)(F)F)c1)S(C)(=O)=O [Compound 26, N-methyl-N-[3-({[2-{[6-(methylsulfonyl)pyridin-3-yl]amino}-5-(trifluoromethyl)pyrimidin-4-yl]amino}methyl)phenyl] methanesulfonamide]
14 | 1.38 | CN(c1ncccc1CNc1nc(Nc2ccc(N3CCCS3(=O)=O)cc2)ncc1C(F)(F)F)S(C)(=O)=O [Compound 27, N-[3-({[2-{[4-(1,1-dioxidoisothiazolidin-2-yl)phenyl]amino}-5-(trifluoromethyl)pyrimidin-4-yl]amino}methyl)pyridin-2-yl]-N-methylmethane-sulfonamide]
15 | 2.01 | Cc1ccc(CNc2nc(Nc3ccc(N4CCCS4(=O)=O)cc3)ncc2C(F)(F)F)c(N(C)S(C)(=O)=O)n1 [Compound 28, N-[3-({[2-{[4-(1,1-dloxidolsothiazolidin-2-yl)phenyl]amino}-5-(trifluoromethyl)pyrimidin-4-yl]amino}methyl)-6-methylpyridin-2-yl]-N-methylmethanesulfonamide]
16 | 2.09 | CS(=O)(=O)c1cccc(CNc2nc(Nc3ccc(N4CCCS4(=O)=O)cc3)ncc2C(F)(F)F)c1 [Compound 29, N~2~-[4-(1,1-dioxidoisothiazolidin-2-yl)phenyl]-N-4~-[3-(methylsulfonyl)benzyl]-5-(trifluoromethyl)pyrimidine-2,4-diamine]
17 | 0.72 | CN(c1ncccc1CNc1nc(Nc2ccc(CNS(C)(=O)=O)cc2)ncc1C(F)(F)F)S(C)(=O)=O [Compound 30, N-methyl-N-{3-[({2-[(4-{[(methylsulfonyl)amino]methyl}phenyl)amino]-5-(trifluoromethyl)pyrimidin-4-yl}amino)methyl]pyridin-2-yl}methanesulfonamide]
18 | 2.22 | CN(c1ncccc1CNc1nc(Nc2cccc(CS(N)(=O)=O)c2)ncc1C(F)(F)F)S(C)(=O)=O [Compound 31, N-[3-({[2-({3-[(aminosulfonyl)methyl]phenyl}amino)-5-(trifluoronnethyl)pyrimidin-4-yl]amino}methyl)pyridin-2-yl]-N-methylmethane-sulfonatnide]
19 | 1.33 | CN(c1ncccc1CNc1nc(Nc2cccc(CNS(C)(=O)=O)c2)ncc1C(F)(F)F)S(C)(=O)=O [Compound 33, N-methyl-N-{3-[({2-[(3-{[(methylsulfonyl)amino]methyl}phenyl)amino]-5-(trifluoromethyl)pyrimidin-4-yl}amino)methyl)pyridin-2-yl}methanesulfonamide]
20 | 15.6 | CN(c1cccc(CNc2nc(Nc3ccc(S(N)(=O)=O)cc3)ncc2Br)c1)S(C)(=O)=O [Compound 34, 4-{[5-bromo-4-({3-[methyl(methylsulfonyl)amino]benzyl}amino)pyrimidin-2-yl)amino}benzenesulfonamide]
21 | 17.6 | CS(=O)(=O)c1cccc(CNc2nc(Nc3ccc(S(N)(=O)=O)cc3)ncc2Br)c1 [Compound 35, 4-[(5-bromo-4-{[3-(methylsulfonyl)benzyl]amino}pyrimidin-2-yl)amino]benzene-sulfonamide]
